Source: publication PMC9887116, “SDI-118, a novel procognitive SV2A modulator: First-in-human randomized controlled trial including PET/fMRI assessment of target engagement” (Frontiers in Pharmacology, 2023)

Legend:
[1] = set-up: species or system rats; conditions: rat, in vivo
[2] = cardiovascular safety pharmacology study in dogs; type: in vivo
[3] = in vivo
Description: The study consisted of three parts. Part A was a double-blind, placebo-controlled (in a 6:2 SDI-118:placebo ratio), single ascending oral dose study performed in 16 subjects equally divided into two cohorts. […] Dose levels of .3, 1, 3, 10, 30, 60, 90 and 120 mg of SDI-118 were set to be administered in an alternating panel design with a minimum washout period of 7 days between subsequent periods. In each period two different sentinel subjects were dosed (in a 1:1 SDI-118:placebo ratio) and followed-up for safety for at least 48 h before the rest of the cohort received the same dose level of the study drug.
Safety and tolerability were assessed by questioning for adverse events (AEs), vital signs measurements (supine and orthostatic), 12-lead ECGs (always acquired in triplicate except during screening and post-study visit), standard lab safety tests on blood and urine samples, and physical and neurological examinations at regular time-points throughout the study.

[4] = system: SV2B; conditions: relative to SV2A
Excerpt: (§1) ([Löscher et al., 2016]). […] ([Lynch et al., 2004]; [Matagne et al., 2008]).

[5] = system: SV2C; conditions: relative to SV2A
Excerpt: as §1

[6] = system: SV2A; test: minimum anticipated biological effect level in experimental rodent models; type: in vivo
Description: (§2) The study consisted of three parts. […] No stratification was performed.

[7] = system: screening panel of receptors and enzymes; test: screening panel of receptors and enzymes; conditions: up to a concentration of 10 µM
Description: There were no SAEs or adverse events leading to subject discontinuation from the study. […] The most frequently reported drug related TEAEs were dizziness, hypersomnia, and somnolence, the latter reported only at the highest dose tested (i.e. 80 mg). The onset time of these events was generally short after dose administration, and their duration was usually short with resolution on the same day of dosing or the day after at the most. These mild and transient side effects started at the 10 mg dose and were also observed at higher doses. […] Occupancy at the higher doses would then progressively increase to a maximum of 96% of the predicted maximum at the 80 mg dose. Thus, the observed mild and transient side effects could be consistent with a target related effect seen, in some individuals, at occupancy levels greater than ∼60%. […] Further studies will elucidate this. None of the observed clinically significant changes in vital signs, laboratory parameters, and ECG intervals during the study were considered related to the administration of SDI-118.

[8] = food effect on pharmacokinetics, Part C; type: in vivo, human (healthy male subjects); conditions: 10 mg
Description: (§3) Blood samples for PK analysis were taken at regular time-points up to approximately 96 h post-dose in Part A and C. During the study, a protocol amendment was approved to extend the PK sampling scheme to include samples up to approximately 144 h post-dose, starting from the fourth dosing period. The rationale for this amendment was a longer than anticipated terminal elimination half-life of SDI-118 as concluded from preliminary PK data of the first three dosing periods. Plasma concentrations of SDI-118 were assayed using a GLP validated UPLC/MS-MS method. This method is linear for a range of concentrations from 0.200 to 500 ng/ml, with a lower limit of quantification (LLOQ) of 0.200 ng/ml. The following PK parameters were estimated: maximum plasma concentration Cmax, time of maximum plasma concentration Tmax, area under the plasma concentration versus time curve AUC, AUC0-last (up to the last quantifiable concentration Clast), AUCinf (extrapolated to infinity), and apparent terminal elimination half-life t½. Dose proportionality of SDI-118 Cmax, AUC0-last, and AUCinf from Part A was calculated based on a mixed-effect power model. Food effect on SDI-118 Cmax, AUC0-last, and AUCinf from Part C was calculated using a 90% confidence interval (CI) on geometric mean ratios (fed/fasted) based on a mixed-effect analysis of variance (ANOVA) with median difference in Tmax with 90% CI. Major interaction was excluded if the 90% CI on AUC and Cmax ratios (fed/fasted) were within the 50%–200% boundaries. The food effect assessment in Part C was performed on a secondary population, i.e. the PK completers set, which excluded one subject who discontinued the study after one dosing period (cfr. infra).

[9] = plasma pharmacokinetics, Part A single ascending dose; type: in vivo, human (healthy male subjects)
Description: as §2, §3

[10] = system: animal models of cognitive deficit; test: animal models of cognitive deficit; type: in vivo; conditions: rodents
Excerpt: as §1

[11] = target: hERG (Homo sapiens, UniProt Q12809); test: preclinical in vitro hERG inhibition; type: biochemical; conditions: preclinical in vitro studies
Sequence of hERG (Q12809 whole entry): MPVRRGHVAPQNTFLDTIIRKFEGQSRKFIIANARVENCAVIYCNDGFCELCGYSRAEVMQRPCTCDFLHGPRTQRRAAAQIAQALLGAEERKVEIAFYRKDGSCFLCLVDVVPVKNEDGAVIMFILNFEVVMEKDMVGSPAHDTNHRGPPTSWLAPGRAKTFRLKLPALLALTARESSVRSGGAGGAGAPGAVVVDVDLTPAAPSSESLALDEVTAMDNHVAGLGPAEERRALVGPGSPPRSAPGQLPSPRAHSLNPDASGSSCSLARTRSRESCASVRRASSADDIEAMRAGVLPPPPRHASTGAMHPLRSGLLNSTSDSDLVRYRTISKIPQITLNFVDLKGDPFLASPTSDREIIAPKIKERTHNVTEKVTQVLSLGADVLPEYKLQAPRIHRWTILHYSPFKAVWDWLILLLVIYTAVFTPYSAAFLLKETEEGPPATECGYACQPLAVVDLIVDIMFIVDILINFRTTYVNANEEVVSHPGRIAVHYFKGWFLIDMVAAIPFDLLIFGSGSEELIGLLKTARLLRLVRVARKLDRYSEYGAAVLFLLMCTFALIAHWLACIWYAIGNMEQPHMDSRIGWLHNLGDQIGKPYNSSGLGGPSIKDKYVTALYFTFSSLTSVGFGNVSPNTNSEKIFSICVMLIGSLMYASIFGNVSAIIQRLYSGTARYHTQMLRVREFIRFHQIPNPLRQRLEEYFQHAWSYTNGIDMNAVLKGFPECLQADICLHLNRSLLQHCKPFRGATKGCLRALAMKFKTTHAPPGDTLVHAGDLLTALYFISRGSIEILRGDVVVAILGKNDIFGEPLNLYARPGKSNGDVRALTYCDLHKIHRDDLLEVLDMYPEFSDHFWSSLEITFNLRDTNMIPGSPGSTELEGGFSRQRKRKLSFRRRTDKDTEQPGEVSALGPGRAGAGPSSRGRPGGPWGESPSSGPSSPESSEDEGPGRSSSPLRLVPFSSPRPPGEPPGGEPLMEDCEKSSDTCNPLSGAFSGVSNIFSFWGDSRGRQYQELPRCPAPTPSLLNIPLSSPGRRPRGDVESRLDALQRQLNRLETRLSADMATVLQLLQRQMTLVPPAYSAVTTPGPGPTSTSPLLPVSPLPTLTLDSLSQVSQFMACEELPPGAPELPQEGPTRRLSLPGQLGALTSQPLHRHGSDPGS

[12] = anti-convulsant effects (preclinical); type: in vivo; conditions: despite good brain penetration and target occupancy
Excerpt: as §1

O=C1C[C@H](c2cc(F)c(F)c(F)c2)CN1Cn1ncnc1Cl [SDI-118]
no observed adverse effect level (NOAEL) [1]: 150 mg/kg/day
findings in cardiovascular safety pharmacology study [2]: absence of any adverse findings
onset time of dizziness, hypersomnia, somnolence after dose administration [3]: up to 4 h
selectivity over SV2B [4]: over 1000 fold
selectivity over SV2C [5]: over 100 fold
SV2A occupancy at which MABEL appeared to start [6]: approximately 10%
activity in screening panel of receptors and enzymes [7]: no activity was observed
median Tmax ([8]; fasting state): 1.5 h
median Tmax ([8]; fed state (standardized high fat meal)): 4.0 h
effect of food on extent of exposure (Cmax, AUC0-last, AUCinf) ([8]; fed vs fasted (n = 8)): No clinically relevant effect of food
geometric mean AUCinf ([9]; 0.3 mg single oral dose): 120 ng·h/mL
geometric mean Cmax ([9]; 0.3 mg single oral dose): 3.42 ng/mL
geometric mean AUCinf ([9]; 80 mg single oral dose): 25,500 ng*h/mL
geometric mean Cmax ([9]; 80 mg single oral dose): 854 ng/mL
deviation from dose proportionality for Cmax ([9]; 0.3-80 mg, mixed-effect power model): approximately 5%
dose proportionality based on AUC0-last and AUCinf ([9]; entire dose range 0.3-80 mg): dose-proportional
median Tmax ([9]; oral capsule, fasting condition): 1.5 h
cognitive effects in animal models of cognitive deficit [10]: showed cognitive enhancing effects
potential to inhibit hERG [11]: low potential to inhibit hERG
anti-convulsant effects [12]: without anti-convulsant effects
